Measured values: US20200390100A1, “SUBSTITUTED N-HETEROCYCLYL- AND N-HETEROARYL-TETRAHYDROPYRIMIDINONES AND THE SALTS THEREOF, AND THE USE OF SAME AS HERBICIDAL ACTIVE SUBSTANCES” (Bayer Aktiengesellschaft, priority 2017, published 2020)

Columns and labels:
Format in all cases: in vivo
Setaria viridis [1] = assay: Pre-emergence herbicidal action, greenhouse, 320 g/ha; settings: application rate 320 g/ha, Table B11
From the text: (§1) Seeds of monocotyledonous and dicotyledonous weed plants and crop plants were placed in plastic or organic planting pots and covered with soil. The compounds of the invention, formulated in the form of wettable powders (WP) or as emulsion concentrates (EC), were then applied to the surface of the covering soil as aqueous suspension or emulsion with addition of 0.5% additive at a water application rate equivalent to […]. After the treatment, the pots were placed in a greenhouse and kept under good growth conditions for the test plants. After about 3 weeks, the effect of the preparations is scored visually in comparison with untreated controls as percentages. For example, 100% activity=the plants have died, 0% activity=like control plants. Tables B1 to B14 below show the effects of selected compounds of the general formula (I) according to Tables I.1 to I.150 on various harmful plants and at an application rate corresponding to 320 g/ha, which were obtained by the experimental procedure mentioned above.

Polygonum convolvulus = assay: as above; settings: application rate 320 g/ha, scored visually after about 3 weeks vs untreated controls
From the text: as §1

Viola tricolor [2] = assay: as above; settings: application rate 320 g/ha, Table B8
From the text: as §1

Digitaria sanguinalis = assay: as above; settings: application rate 320 g/ha, Table B9
From the text: as §1

Matricaria inodora [3] = assay: as above; settings: application rate 320 g/ha, scored visually after about 3 weeks vs untreated controls
From the text: as §1

Amaranthus retroflexus [4] = assay: as above; settings: application rate 320 g/ha, scored visually after about 3 weeks vs untreated controls
From the text: as §1

Stellaria media [5] = assay: as above; settings: application rate 320 g/ha, scored visually after about 3 weeks vs untreated controls
From the text: as §1

Setaria viridis [6] = assay: Post-emergence herbicidal action, greenhouse, 320 g/ha; settings: application rate 320 g/ha, rated visually after about 3 weeks vs untreated controls
Method: (§2) Seeds of monocotyledonous and dicotyledonous weeds and crop plants were placed in sandy loam in plastic or wood-fiber pots, covered with soil and cultivated in a greenhouse under controlled growth conditions. 2 to 3 weeks after sowing, the test plants were treated at the one-leaf stage. The compounds of the invention, formulated in the form of wettable powders (WP) or as emulsion concentrates (EC), were then sprayed onto the green parts of the plants as aqueous suspension or emulsion with addition of 0.5% additive at a water application rate of […] (converted). After the test plants had been kept in the greenhouse under optimum growth conditions for about 3 weeks, the activity of the preparations was rated visually in comparison to untreated controls. For example, 100% activity=the plants have died, 0% activity=like control plants. Tables A1 to A14 below show the effects of selected compounds of the general formula (I) according to Tables 1.1 to 1.150 on various harmful plants and at an application rate corresponding to 320 g/ha, which were obtained by the experimental procedure mentioned above.

Viola tricolor [7] = assay: as above; settings: application rate 320 g/ha, rated visually after about 3 weeks vs untreated controls
Method: as §2

Amaranthus retroflexus [8] = assay: as above; settings: application rate 320 g/ha, rated visually after about 3 weeks vs untreated controls
Method: as §2

Stellaria media [9] = assay: as above; settings: application rate 320 g/ha, rated visually after about 3 weeks vs untreated controls
Method: as §2

Pharbitis purpurea = assay: Pre-emergence herbicidal action, greenhouse, 320 g/ha; settings: application rate 320 g/ha, Table B12
From the text: as §1

Alopecurus myosuroides = assay: as above; settings: application rate 320 g/ha, scored visually after about 3 weeks vs untreated controls
From the text: as §1

Veronica persica = assay: as above; settings: application rate 320 g/ha, Table B13
From the text: as §1

Avena fatua = assay: as above; settings: application rate 320 g/ha, scored visually after about 3 weeks vs untreated controls
From the text: as §1

Abutilon theophrasti [10] = assay: as above; settings: application rate 320 g/ha, scored visually after about 3 weeks vs untreated controls
From the text: as §1

Poa annua [11] = assay: Herbicidal post-emergence action (Part 2), 1280 g/ha; settings: application rate 1280 g/ha, rated visually after about 3 weeks, Table C2
Method: (§3) Seeds of mono- and dicotyledonous weed plants were placed in plastic pots in sandy loam soil (doubly sown with in each case one species of mono- or dicotyledonous weed plants per pot), covered with soil and cultivated in a greenhouse under controlled growth conditions. 2 to 3 weeks after sowing, the test plants were treated at the one-leaf stage. The compounds of the invention, formulated in the form of wettable powders (WP) or as emulsion concentrates (EC), were applied onto the green parts of the plants as aqueous suspension or emulsion with addition of 0.5% additive at a water application rate of 600 liters per hectare (converted). After the test plants had been kept in the greenhouse under optimum growth conditions for about 3 weeks, the activity of the preparations was rated visually in comparison to untreated controls. For example, 100% activity=the plants have died, 0% activity=like control plants. Tables C1 to C7 below show the effects of selected compounds of the general formula (I) according to Tables 1.1 to 1.150 on various harmful plants and at an application rate corresponding to 1280 g/ha, which were obtained by the experimental procedure mentioned above.

Matricaria inodora [12] = assay: as above; settings: application rate 1280 g/ha, rated visually after about 3 weeks, Table C6
Method: as §3

Amaranthus retroflexus [13] = assay: as above; settings: application rate 1280 g/ha, rated visually after about 3 weeks, Table C5
Method: as §3

Stellaria media [14] = assay: as above; settings: application rate 1280 g/ha, rated visually after about 3 weeks, Table C7
Method: as §3

Setaria viridis [15] = assay: Herbicidal pre-emergence action (Part 2), 1280 g/ha; settings: application rate 1280 g/ha, scored visually after about 3 weeks, Table D4
From the text: (§4) Seeds of mono- and dicotyledonous weed plants were placed in plastic pots in sandy loam soil (doubly sown with in each case one species of mono- or dicotyledonous weed plants per pot) and covered with soil. The compounds of the invention, formulated in the form of wettable powders (WP) or as emulsion concentrates (EC), were then applied onto the surface of the covering soil as aqueous suspension or emulsion with addition of 0.5% additive at a water application rate of 600 liters per hectare (converted). After the treatment, the pots were placed in a greenhouse and kept under good growth conditions for the test plants. After about 3 weeks, the effect of the preparations was scored visually in comparison with untreated controls as percentages. For example, 100% activity=the plants have died, 0% activity=like control plants. Tables D1 to D8 below show the effects of selected compounds of the general formula (I) according to Tables 1.1 to 1.150 on various harmful plants and at an application rate corresponding to 1280 g/ha, which were obtained by the experimental procedure mentioned above.

Poa annua [16] = assay: as above; settings: application rate 1280 g/ha, scored visually after about 3 weeks, Table D3
From the text: as §4

Echinochloa crus-galli = assay: as above; settings: application rate 1280 g/ha, scored visually after about 3 weeks, Table D1
From the text: as §4

Matricaria inodora [17] = assay: as above; settings: application rate 1280 g/ha, scored visually after about 3 weeks, Table D7
From the text: as §4

Amaranthus retroflexus [18] = assay: as above; settings: application rate 1280 g/ha, scored visually after about 3 weeks, Table D6
From the text: as §4

Stellaria media [19] = assay: as above; settings: application rate 1280 g/ha, scored visually after about 3 weeks, Table D8
From the text: as §4

Abutilon theophrasti [20] = assay: as above; settings: application rate 1280 g/ha, scored visually after about 3 weeks, Table D5
From the text: as §4

Row | SMILES | Setaria viridis (efficacy in %) (Setaria viridis [1]) | Polygonum convolvulus (efficacy in %) (Polygonum convolvulus) | Viola tricolor (efficacy in %) (Viola tricolor [2]) | Digitaria sanguinalis (efficacy in %) (Digitaria sanguinalis) | Matricaria inodora (efficacy in %) (Matricaria inodora [3]) | Amaranthus retroflexus (efficacy in %) (Amaranthus retroflexus [4]) | Stellaria media (efficacy in %) (Stellaria media [5]) | Amaranthus retroflexus (efficacy in %) (Amaranthus retroflexus [8]) | Pharbitis purpurea (efficacy in %) (Pharbitis purpurea) | Alopecurus myosuroides (efficacy in %) (Alopecurus myosuroides) | Veronica persica (efficacy in %) (Veronica persica) | Abutilon theophrasti (efficacy in %) (Abutilon theophrasti [10]) | Poa Annua (Poa annua [11]) | Amaranthus retroflexus (Amaranthus retroflexus [13]) | Poa Annua (Poa annua [16]) | Matricaria inodora (Matricaria inodora [17]) | Amaranthus retroflexus (Amaranthus retroflexus [18]) | further results
1 | CN1CCC(O)N(c2cc(C(F)(F)F)c(Cl)cn2)C1=O (stereo not shown) [I.1-451] | 90% | 90% | 100% | 90% | 100% | 90% | 100% | 100% |  |  |  |  |  |  |  |  |  | Setaria viridis (efficacy in %) (Setaria viridis [6]): 80%; Viola tricolor (efficacy in %) (Viola tricolor [7]): 100%; Stellaria media (efficacy in %) (Stellaria media [9]): 100%
2 | CN1CCC(O)N(c2cc(C(F)(F)F)c(Br)cn2)C1=O (stereo not shown) [I.1-464] | 100% | 100% | 100% | 100% | 100% | 100% | 100% | 100% | 100% | 80% | 100% | 100% |  |  |  |  |  | Avena fatua (efficacy in %) (Avena fatua): 80%; Viola tricolor (efficacy in %) (Viola tricolor [7]): 100%; Stellaria media (efficacy in %) (Stellaria media [9]): 90%
3 | CN1CCC(O)N(c2cc(C(F)(F)F)ncn2)C1=O (stereo not shown) [I.1-506] | 100% | 100% | 100% | 100% | 100% | 90% | 100% | 100% | 100% | 90% | 80% | 80% |  |  |  |  |  | Avena fatua (efficacy in %) (Avena fatua): 80%; Setaria viridis (efficacy in %) (Setaria viridis [6]): 100%
4 | CC(=O)OC1CCN(C)C(=O)N1c1cc(C(C)(C)C)no1 (stereo not shown) [I.2-290, 3-(3-tert-Butyl-1,2-oxazol-5-yl)-1-methyl-2-oxohexahydropyrimidin-4-yl Acetate] |  |  |  |  |  |  |  |  |  |  |  |  | 90% | 100% | 100% | 100% | 100% | Matricaria inodora (Matricaria inodora [12]): 90%; Stellaria media (Stellaria media [14]): 100%; Setaria viridis (Setaria viridis [15]): 90%; Echinochloa crus-galli (Echinochloa crus-galli): 90%; Stellaria media (Stellaria media [19]): 100%; Abutilon theophrasti (Abutilon theophrasti [20]): 100%
5 | CC(=O)OC1CCN(C)C(=O)N1C1=NOC(C)(C)C1 (stereo not shown) [I.2-709] |  | 100% | 100% | 90% | 100% |  | 100% |  | 100% | 90% | 100% | 80% |  |  |  |  |  | 
6 | CCCC(=O)OC1N(c2cc(C(C)(C)C)on2)C(=O)N(C)CC1(C)C (stereo not shown) [I.66-162] |  |  |  |  |  |  |  |  |  |  |  |  | 90% | 100% | 100% | 100% | 90% | Echinochloa crus-galli (Echinochloa crus-galli): 90%; Abutilon theophrasti (Abutilon theophrasti [20]): 100%
7 | CC(=O)OC1N(c2cc(C(C)(C)C)on2)C(=O)N(C)CC12CCC2 (stereo not shown) [I.82-162] |  |  |  |  |  |  |  |  |  |  |  |  | 90% | 100% | 100% | 100% | 100% | Stellaria media (Stellaria media [19]): 90%
